Structures can show the parent of a compound that is named as a salt.
Tests used:
Assay type in all cases: biochemical
[1] = target: human PLK4 (Homo sapiens (Human), UniProt O00444); assay: PLK4 inhibition assay (indirect ELISA); details: read-out: PLK4 IC50 Ranges
[2] = target: Aurora B (Homo sapiens (Human), UniProt Q96GD4); assay: Aurora B inhibition assay (Z-Lyte); details: read-out: Aurora B IC50 Ranges
[3] = target: FLT3 (Homo sapiens (Human), UniProt P36888); assay: FLT3 inhibition assay (Z-Lyte); details: read-out: Flt3 IC50 Ranges
Chain of FLT3 (P36888 27-993): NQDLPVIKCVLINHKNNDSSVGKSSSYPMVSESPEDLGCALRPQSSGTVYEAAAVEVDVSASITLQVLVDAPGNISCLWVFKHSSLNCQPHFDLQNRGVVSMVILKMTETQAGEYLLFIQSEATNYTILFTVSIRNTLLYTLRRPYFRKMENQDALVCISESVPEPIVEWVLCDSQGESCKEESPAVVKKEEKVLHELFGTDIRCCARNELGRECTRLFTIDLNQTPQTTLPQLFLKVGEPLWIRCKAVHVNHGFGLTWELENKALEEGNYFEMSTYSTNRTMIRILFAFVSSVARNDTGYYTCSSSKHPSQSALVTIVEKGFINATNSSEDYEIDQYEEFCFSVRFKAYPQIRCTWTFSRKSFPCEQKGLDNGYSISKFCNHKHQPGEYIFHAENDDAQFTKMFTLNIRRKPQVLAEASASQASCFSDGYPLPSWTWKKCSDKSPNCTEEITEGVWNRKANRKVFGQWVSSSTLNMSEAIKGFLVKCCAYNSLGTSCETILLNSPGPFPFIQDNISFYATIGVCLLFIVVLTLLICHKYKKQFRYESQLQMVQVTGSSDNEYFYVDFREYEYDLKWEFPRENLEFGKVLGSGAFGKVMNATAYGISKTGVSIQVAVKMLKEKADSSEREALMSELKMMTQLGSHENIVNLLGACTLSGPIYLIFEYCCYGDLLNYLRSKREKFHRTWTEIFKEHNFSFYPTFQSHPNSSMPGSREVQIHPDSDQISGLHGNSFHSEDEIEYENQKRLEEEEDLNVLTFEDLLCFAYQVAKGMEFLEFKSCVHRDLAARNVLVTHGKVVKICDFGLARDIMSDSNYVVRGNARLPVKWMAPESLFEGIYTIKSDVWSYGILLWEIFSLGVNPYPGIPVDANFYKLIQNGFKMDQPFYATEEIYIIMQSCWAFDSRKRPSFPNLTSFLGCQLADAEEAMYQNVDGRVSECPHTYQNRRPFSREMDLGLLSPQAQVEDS

Chain of human PLK4 (O00444 1-391): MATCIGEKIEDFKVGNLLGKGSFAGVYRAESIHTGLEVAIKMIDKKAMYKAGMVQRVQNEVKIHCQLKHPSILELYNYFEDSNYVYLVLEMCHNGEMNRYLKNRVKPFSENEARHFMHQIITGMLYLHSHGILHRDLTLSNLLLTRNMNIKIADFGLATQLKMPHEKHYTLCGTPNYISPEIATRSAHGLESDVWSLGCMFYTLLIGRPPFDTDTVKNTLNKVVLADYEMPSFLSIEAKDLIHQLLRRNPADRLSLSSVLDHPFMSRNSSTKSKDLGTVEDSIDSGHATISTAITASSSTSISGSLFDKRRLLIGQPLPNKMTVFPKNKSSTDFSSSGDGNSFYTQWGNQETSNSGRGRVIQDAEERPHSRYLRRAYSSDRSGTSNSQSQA
Chain of Aurora B (Q96GD4 whole entry): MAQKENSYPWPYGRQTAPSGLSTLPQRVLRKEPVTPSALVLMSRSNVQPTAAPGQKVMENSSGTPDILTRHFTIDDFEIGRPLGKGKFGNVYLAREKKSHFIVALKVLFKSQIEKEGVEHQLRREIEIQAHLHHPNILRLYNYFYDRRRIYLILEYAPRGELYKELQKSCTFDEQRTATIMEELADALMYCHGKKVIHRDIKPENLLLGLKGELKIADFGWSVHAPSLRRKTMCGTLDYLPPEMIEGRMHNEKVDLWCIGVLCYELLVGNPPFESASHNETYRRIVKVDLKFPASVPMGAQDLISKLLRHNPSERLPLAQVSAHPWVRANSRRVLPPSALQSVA

IC50 [1]	IC50 [2]	SMILES	IC50 [3]
< 0.1 µM	0.1 to 1 µM	COc1ccc2c(c1)[C@]1(C[C@H]1c1ccc3c(-c4cccc(CN5CCCCC5)c4)n[nH]c3c1)C(=O)N2 (relative stereo) [Example A44, (1R*,2S*)-5′-methoxy-2-(3-(3-(piperidin-1-ylmethyl)phenyl)-1H-indazol-6-yl)spiro[cyclopropane-1,3′-indolin]-2′-one 2,2,2-trifluoroacetate]	> 1 µM
		COc1ccc2c(c1)[C@]1(C[C@H]1c1ccc3c(-c4ccc(N5CCN(C(C)C)CC5)cc4)n[nH]c3c1)C(=O)N2 [Example A97, (1R,2S)-2-(3-(4-(4-isopropylpiperazin-1-yl)phenyl)-1H-indazol-6-yl)-5′-methoxyspiro[cyclopropane-1,3′-indolin]-2′-one 2,2,2-trifluoroacetate]	< 0.1 µM
< 0.1 µM		COc1ccc2c(c1)[C@]1(C[C@H]1c1ccc3c(-c4ccc(N5CC[C@H](N(C)C)C5)cc4)n[nH]c3c1)C(=O)N2 [Example A128, (1R,2S)-2-(3-(4-((S)-3-(dimethylamino)pyrrolidin-1-yl)phenyl)-1H-indazol-6-yl)-5′-methoxyspiro[cyclopropane-1,3′-indolin]-2′-one 2,2,2-trifluoroacetate]	0.1 to 1 µM
		COc1ccc2c(c1)[C@]1(C[C@H]1c1ccc3c(/C=C/c4cccc(CN5CCOCC5)c4)n[nH]c3c1)C(=O)N2 [Example A132, (1R,2S)-5′-methoxy-2-(3-(3-(morpholinomethyl)styryl)-1H-indazol-6-yl)spiro[cyclopropane-1,3′-indolin]-2′-one 2,2,2-trifluoroacetate]	< 0.1 µM
		COc1ccc2c(c1)[C@]1(C[C@H]1c1ccc3c(/C=C/c4cccc(CN(C)C)c4)n[nH]c3c1)C(=O)N2 [Example A134, (1R,2S)-2-(3-(3-((dimethylamino)methyl)styryl)-1H-indazol-6-yl)-5′-methoxyspiro[cyclopropane-1,3′-indolin]-2′-one 2,2,2-trifluoroacetate]	< 0.1 µM
< 0.1 µM	< 0.1 µM	COc1ccc2c(c1)[C@]1(C[C@H]1c1ccc3c(-c4ccc5c(c4)CN(C)CC5)n[nH]c3c1)C(=O)N2 [Example A70, (1R,2S)-5′-methoxy-2-(3-(2-methyl-1,2,3,4-tetrahydroisoquinolin-7-yl)-1H-indazol-6-yl)spiro[cyclopropane-1,3′-indolin]-2′-one 2,2,2-trifluoroacetate salt]	
< 0.1 µM	< 0.1 µM	CCN(CC)Cc1c(F)cc(/C=C/c2n[nH]c3cc([C@@H]4C[C@@]45C(=O)Nc4ccc(OC)cc45)ccc23)cc1F [Example A146, (1R,2S)-(E)-2-(3-(4-((diethylamino)methyl)-3,5-difluorostyryl)-1H-indazol-6-yl)-5′-methoxyspiro[cyclopropane-1,3′-indolin]-2′-one 2,2,2-trifluoroacetate]	
< 0.1 µM	< 0.1 µM	COc1ccc2c(c1)[C@]1(C[C@H]1c1ccc3c(-c4ccc(C5CCN(C)CC5)cc4)n[nH]c3c1)C(=O)N2 [Example A123, (1R,2S)-5′-methoxy-2-(3-(4-(1-methylpiperidin-4-yl)phenyl)-1H-indazol-6-yl)spiro[cyclopropane-1,3′-indolin]-2′-one hydrochloride]	
		COc1ccc2c(c1)[C@]1(C[C@H]1c1ccc3c(/C=C/c4ccc(CN5C[C@@H](C)O[C@@H](C)C5)cc4)n[nH]c3c1)C(=O)N2 [Example A185]	0.1 to 1 µM
< 0.1 µM	< 0.1 µM	CCN1CCN(c2ccc(/C=C/c3n[nH]c4cc([C@@H]5C[C@@]56C(=O)Nc5ccc(OC)cc56)ccc34)cc2)CC1 [Example A187, (1R,2S)-(E)-2-(3-(4-(4-ethylpiperazin-1-yl)styryl)-1H-indazol-6-yl)-5′-methoxyspiro[cyclopropane-1,3′-indolin]-2′-one 2,2,2-trifluoroacetate]	
< 0.1 µM	< 0.1 µM	CN1CCc2cc(/C=C/c3n[nH]c4cc([C@@H]5C[C@@]56C(=O)Nc5ccccc56)ccc34)ccc2C1 [Example A74, (1R,2S)-2-(3-((E)-2-(2-methyl-1,2,3,4-tetrahydroisoquinolin-6-yl)vinyl)-1H-indazol-6-yl)spiro[cyclopropane-1,3′-indolin]-2′-one 2,2,2-trifluoroacetate salt]	
< 0.1 µM	< 0.1 µM	COc1ccc2c(c1)[C@]1(C[C@H]1c1ccc3c(/C=C/c4csc(CN5CCOCC5)c4)n[nH]c3c1)C(=O)N2 [Example A183, (1R,2S)-5′-methoxy-2-(3-((E)-2-(5-(morpholinomethyl)thiophen-3-yl)vinyl)-1H-indazol-6-yl)spiro[cyclopropane-1,3′-indolin]-2′-one 2,2,2-trifluoroacetate]	
< 0.1 µM	< 0.1 µM	COc1ccc2c(c1)[C@]1(C[C@H]1c1ccc3c(-c4cccc(CO)c4)n[nH]c3c1)C(=O)N2 (relative stereo) [Example A43, (1R*,2S*)-2-(3-(3-(hydroxymethyl)phenyl)-1H-indazol-6-yl)-5′-methoxy spiro[cyclopropane-1,3′-indolin]-2′-one 2,2,2-trifluoroacetate]	

SMILES	IC50 [1]	IC50 [2]	IC50 [3]
COc1ccc2c(c1)[C@@]1(C[C@@H]1c1ccc3c(-c4ccc(N5CCN(C)CC5)nc4)n[nH]c3c1)C(=O)N2 (stereo in doubt) [Example A16, (1S,2R)-5′-methoxy-2-(3-(6-(4-methylpiperazin-1-yl)pyridin-3-yl)-1H-indazol-6-yl)spiro[cyclopropane-1,3′-indolin]-2′-one]	< 0.1 µM	< 0.1 µM	< 0.1 µM
CCN1CCN(c2ccc(-c3n[nH]c4cc([C@@H]5C[C@@]56C(=O)Nc5ccc(OC)cc56)ccc34)cc2)CC1 [Example A99, (1R,2S)-2-(3-(4-(4-ethylpiperazin-1-yl)phenyl)-1H-indazol-6-yl)-5′-methoxyspiro[cyclopropane-1,3′-indolin]-2′-one 2,2,2-trifluoroacetate]	< 0.1 µM	< 0.1 µM	< 0.1 µM
COc1ccc2c(c1)[C@]1(C[C@H]1c1ccc3c(-c4ccc(N5CCC(N6CCOCC6)CC5)cc4)n[nH]c3c1)C(=O)N2 [Example A121, (1R,2S)-5′-methoxy-2-(3-(4-(4-morpholinopiperidin-1-yl)phenyl)-1H-indazol-6-yl)spiro[cyclopropane-1,3′-indolin]-2′-one 2,2,2-trifluoroacetate]	< 0.1 µM	< 0.1 µM	
COc1ccc2c(c1)[C@]1(C[C@H]1c1ccc3c(/C=C/c4cccc(CN5CCOCC5)c4)n[nH]c3c1)C(=O)N2 (relative stereo) [Example A133, (1R*,2S*)-5′-methoxy-2-(3-(3-(morpholinomethyl)styryl)-1H-indazol-6-yl)spiro[cyclopropane-1,3′-indolin]-2′-one 2,2,2-trifluoroacetate]	< 0.1 µM	< 0.1 µM	
CN1C(=O)[C@@]2(C[C@H]2c2ccc3c(/C=C/c4ccc(CN5CCCCC5)cc4)n[nH]c3c2)c2ccccc21 [Example A94, (1R,2S)-(E)-1′-methyl-2-(3-(4-(piperidin-1-ylmethyl)styryl)-1H-indazol-6-yl)spiro[cyclopropane-1,3′-indolin]-2′-one hydrochloride]	< 0.1 µM	< 0.1 µM	

— patent US9907800B2, “Kinase inhibitors and method of treating cancer” (University Health Network, priority 2010, dated 2018)
